Results taken from patent US4334078A, “Dibenzothiophenes” (Hoffmann-La Roche Inc., priority 1980, dated 1982).

Tested on: mice
Test: acute toxicity (LD50)
Type: in vivo
Details: p.o. in mice

O=C(O)Cc1ccc2c(c1)sc1ccc(Cl)cc12 [8-chloro-dibenzothiophene-3-acetic acid]
LD50: 775 mg
